Reference: BindingDB's records for doi:10.1016/0922-4106(94)90075-2 (University of Pisa, 1994)

Tests used:
[1] = target: Muscarinic acetylcholine receptor M3 (Homo sapiens, UniProt P20309)
[2] = target: T1, Muscarinic acetylcholine receptor M1 (Homo sapiens, UniProt P11229)
T1 sequence (P11229 whole entry): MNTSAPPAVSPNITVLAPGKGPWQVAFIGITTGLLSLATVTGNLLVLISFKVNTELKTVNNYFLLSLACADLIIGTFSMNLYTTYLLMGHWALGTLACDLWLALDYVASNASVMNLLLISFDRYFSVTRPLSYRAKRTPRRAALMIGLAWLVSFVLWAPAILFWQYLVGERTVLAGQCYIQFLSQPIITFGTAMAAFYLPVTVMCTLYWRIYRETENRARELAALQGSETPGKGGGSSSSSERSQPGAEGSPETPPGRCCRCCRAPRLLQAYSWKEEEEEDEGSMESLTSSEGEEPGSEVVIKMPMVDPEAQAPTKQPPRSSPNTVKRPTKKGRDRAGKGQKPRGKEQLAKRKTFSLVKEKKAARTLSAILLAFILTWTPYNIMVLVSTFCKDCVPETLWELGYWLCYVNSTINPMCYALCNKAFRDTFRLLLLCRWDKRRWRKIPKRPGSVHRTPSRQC

[3] = target: T2, Muscarinic acetylcholine receptor M4 (Homo sapiens, UniProt P08173)
T2 sequence (P08173 whole entry): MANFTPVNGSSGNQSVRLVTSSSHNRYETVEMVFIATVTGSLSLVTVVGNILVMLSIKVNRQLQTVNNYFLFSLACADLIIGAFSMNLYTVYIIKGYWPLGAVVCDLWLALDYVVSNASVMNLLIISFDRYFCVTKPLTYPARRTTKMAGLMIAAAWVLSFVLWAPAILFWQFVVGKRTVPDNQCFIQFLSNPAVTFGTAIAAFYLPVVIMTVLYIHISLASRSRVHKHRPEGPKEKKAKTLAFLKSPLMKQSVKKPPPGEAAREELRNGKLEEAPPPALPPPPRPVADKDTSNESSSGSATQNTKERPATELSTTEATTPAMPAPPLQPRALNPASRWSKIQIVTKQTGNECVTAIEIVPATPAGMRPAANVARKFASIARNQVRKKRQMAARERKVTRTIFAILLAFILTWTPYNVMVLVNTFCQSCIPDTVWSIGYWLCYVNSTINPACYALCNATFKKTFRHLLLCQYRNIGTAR

[4] = target: T3, Muscarinic acetylcholine receptor M5 (Homo sapiens, UniProt P08912)
T3 sequence (P08912 whole entry): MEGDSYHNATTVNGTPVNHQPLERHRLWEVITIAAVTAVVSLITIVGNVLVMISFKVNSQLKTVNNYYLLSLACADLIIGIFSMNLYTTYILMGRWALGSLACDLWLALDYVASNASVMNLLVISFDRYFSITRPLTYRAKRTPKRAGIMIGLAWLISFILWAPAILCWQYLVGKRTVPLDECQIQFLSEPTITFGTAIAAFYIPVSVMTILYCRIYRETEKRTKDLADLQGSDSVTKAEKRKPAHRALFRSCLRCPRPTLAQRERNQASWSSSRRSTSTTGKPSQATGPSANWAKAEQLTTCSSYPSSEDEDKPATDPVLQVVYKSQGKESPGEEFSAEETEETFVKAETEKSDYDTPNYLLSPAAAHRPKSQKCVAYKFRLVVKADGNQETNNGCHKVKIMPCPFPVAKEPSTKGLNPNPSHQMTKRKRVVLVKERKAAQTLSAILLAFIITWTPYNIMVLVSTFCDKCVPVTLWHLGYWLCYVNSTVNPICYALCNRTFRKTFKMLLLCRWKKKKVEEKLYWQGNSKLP

Chain of Muscarinic acetylcholine receptor M3 (P20309 whole entry): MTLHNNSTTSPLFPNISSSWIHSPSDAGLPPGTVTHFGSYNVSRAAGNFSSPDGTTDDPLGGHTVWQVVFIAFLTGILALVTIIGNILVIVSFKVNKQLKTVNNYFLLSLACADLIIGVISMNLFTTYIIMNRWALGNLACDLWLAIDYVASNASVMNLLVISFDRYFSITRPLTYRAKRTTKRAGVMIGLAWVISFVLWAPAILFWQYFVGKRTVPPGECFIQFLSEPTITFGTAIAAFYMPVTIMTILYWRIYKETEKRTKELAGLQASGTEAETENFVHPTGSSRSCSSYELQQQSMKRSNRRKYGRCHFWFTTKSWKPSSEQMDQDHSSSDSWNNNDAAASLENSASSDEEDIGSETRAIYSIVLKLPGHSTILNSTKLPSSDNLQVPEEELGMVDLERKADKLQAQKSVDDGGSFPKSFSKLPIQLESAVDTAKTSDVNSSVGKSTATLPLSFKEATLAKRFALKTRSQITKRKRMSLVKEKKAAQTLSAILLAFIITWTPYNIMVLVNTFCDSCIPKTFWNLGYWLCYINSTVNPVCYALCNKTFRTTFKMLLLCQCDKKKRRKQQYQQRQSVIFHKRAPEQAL

Compound | Ki [1] | Ki [2] | Ki [3] | Ki [4]
CN(CCCCCCCCN(C)CCCCCCN(CC(=O)N1c2ccccc2C(=O)Nc2cccnc21)CC(=O)N1c2ccccc2C(=O)Nc2cccnc21)CCCCCCNCC(=O)N1c2ccccc2C(=O)Nc2cccnc21 [NSC_132947] | 38.2 nM | 1.58 nM | 6.41 nM | 33.9 nM
COc1ccccc1CNCCCCCCNCCCCCCCCNCCCCCCNCc1ccccc1OC [METHOCTRAMINE] | 277 nM |  | 38 nM | 313 nM
